Reference: the NIST ThermoML archive (doi:10.1016/j.jct.2015.01.004)
“And” between values parts separate entries of the source, which are not always exact repeats. Identical values can stand only once.

Assay: molar heat capacity at constant pressure; xn = mol fraction of the nth substance listed
Conditions: 100 kPa

[Si] [silicon] + [Li]
Conditions | molar heat capacity at constant pressure
298.15 K, Crystal of intercomponent compound 2, relaxation calorimetry + DSC, x2 = 0.804 | 22.75 J/K/mol
298.32 K, Crystal of intercomponent compound 1, relaxation calorimetry, x2 = 0.81 | 21.66 J/K/mol
298.33 K, Crystal of intercomponent compound 2, relaxation calorimeter, x2 = 0.804 | 22.58 J/K/mol
300 K, Crystal of intercomponent compound 1, relaxation calorimetry + DSC, x2 = 0.81 | 22.58 J/K/mol
300 K, Crystal of intercomponent compound 2, relaxation calorimetry + DSC, x2 = 0.804 | 22.79 J/K/mol
302.31 K, Crystal of intercomponent compound 1, relaxation calorimetry, x2 = 0.81 | 21.75 J/K/mol
302.34 K, Crystal of intercomponent compound 2, relaxation calorimeter, x2 = 0.804 | 22.69 J/K/mol
304.67 K, Crystal of intercomponent compound 2, Small sample (50 mg) DSC, x2 = 0.804 | 23.11 J/K/mol and 23.16 J/K/mol
304.7 K, Crystal of intercomponent compound 1, Small sample (50 mg) DSC, x2 = 0.81 | 22.87 J/K/mol and 22.84 J/K/mol
304.7 K, Crystal of intercomponent compound 2, Small sample (50 mg) DSC, x2 = 0.804 | 23.05 J/K/mol
304.87 K, Crystal of intercomponent compound 1, Small sample (50 mg) DSC, x2 = 0.81 | 22.81 J/K/mol
304.88 K, Crystal of intercomponent compound 1, Small sample (50 mg) DSC, x2 = 0.81 | 22.77 J/K/mol
314.59 K, Crystal of intercomponent compound 2, Small sample (50 mg) DSC, x2 = 0.804 | 23.41 J/K/mol and 23.55 J/K/mol
314.61 K, Crystal of intercomponent compound 1, Small sample (50 mg) DSC, x2 = 0.81 | 23.01 J/K/mol and 23.1 J/K/mol
314.61 K, Crystal of intercomponent compound 2, Small sample (50 mg) DSC, x2 = 0.804 | 23.42 J/K/mol
314.8 K, Crystal of intercomponent compound 1, Small sample (50 mg) DSC, x2 = 0.81 | 22.99 J/K/mol
314.81 K, Crystal of intercomponent compound 1, Small sample (50 mg) DSC, x2 = 0.81 | 22.91 J/K/mol
320 K, Crystal of intercomponent compound 1, relaxation calorimetry + DSC, x2 = 0.81 | 23.07 J/K/mol
320 K, Crystal of intercomponent compound 2, relaxation calorimetry + DSC, x2 = 0.804 | 23.22 J/K/mol
324.51 K, Crystal of intercomponent compound 2, Small sample (50 mg) DSC, x2 = 0.804 | 23.8 J/K/mol and 23.85 J/K/mol
324.52 K, Crystal of intercomponent compound 1, Small sample (50 mg) DSC, x2 = 0.81 | 23.19 J/K/mol and 23.22 J/K/mol
324.52 K, Crystal of intercomponent compound 2, Small sample (50 mg) DSC, x2 = 0.804 | 23.8 J/K/mol
324.71 K, Crystal of intercomponent compound 1, Small sample (50 mg) DSC, x2 = 0.81 | 23.19 J/K/mol
324.72 K, Crystal of intercomponent compound 1, Small sample (50 mg) DSC, x2 = 0.81 | 23.11 J/K/mol
334.42 K, Crystal of intercomponent compound 2, Small sample (50 mg) DSC, x2 = 0.804 | 24.09 J/K/mol and 24.14 J/K/mol
334.43 K, Crystal of intercomponent compound 2, Small sample (50 mg) DSC, x2 = 0.804 | 24.12 J/K/mol
334.44 K, Crystal of intercomponent compound 1, Small sample (50 mg) DSC, x2 = 0.81 | 23.32 J/K/mol and 23.34 J/K/mol
334.63 K, Crystal of intercomponent compound 1, Small sample (50 mg) DSC, x2 = 0.81 | 23.4 J/K/mol
334.64 K, Crystal of intercomponent compound 1, Small sample (50 mg) DSC, x2 = 0.81 | 23.38 J/K/mol
340 K, Crystal of intercomponent compound 1, relaxation calorimetry + DSC, x2 = 0.81 | 23.51 J/K/mol
340 K, Crystal of intercomponent compound 2, relaxation calorimetry + DSC, x2 = 0.804 | 23.65 J/K/mol
344.33 K, Crystal of intercomponent compound 2, Small sample (50 mg) DSC, x2 = 0.804 | 24.3 J/K/mol and 24.38 J/K/mol
344.35 K, Crystal of intercomponent compound 1, Small sample (50 mg) DSC, x2 = 0.81 | 23.65 J/K/mol and 23.63 J/K/mol
344.35 K, Crystal of intercomponent compound 2, Small sample (50 mg) DSC, x2 = 0.804 | 24.37 J/K/mol
344.54 K, Crystal of intercomponent compound 1, Small sample (50 mg) DSC, x2 = 0.81 | 23.6 J/K/mol
344.55 K, Crystal of intercomponent compound 1, Small sample (50 mg) DSC, x2 = 0.81 | 23.53 J/K/mol
354.24 K, Crystal of intercomponent compound 2, Small sample (50 mg) DSC, x2 = 0.804 | 24.56 J/K/mol and 24.6 J/K/mol
354.26 K, Crystal of intercomponent compound 1, Small sample (50 mg) DSC, x2 = 0.81 | 23.98 J/K/mol and 23.97 J/K/mol
354.26 K, Crystal of intercomponent compound 2, Small sample (50 mg) DSC, x2 = 0.804 | 24.57 J/K/mol
354.45 K, Crystal of intercomponent compound 1, Small sample (50 mg) DSC, x2 = 0.81 | 23.8 J/K/mol
354.46 K, Crystal of intercomponent compound 1, Small sample (50 mg) DSC, x2 = 0.81 | 23.72 J/K/mol
360 K, Crystal of intercomponent compound 1, relaxation calorimetry + DSC, x2 = 0.81 | 23.91 J/K/mol
360 K, Crystal of intercomponent compound 2, relaxation calorimetry + DSC, x2 = 0.804 | 24.08 J/K/mol
364.16 K, Crystal of intercomponent compound 2, Small sample (50 mg) DSC, x2 = 0.804 | 24.81 J/K/mol and 24.83 J/K/mol
364.17 K, Crystal of intercomponent compound 1, Small sample (50 mg) DSC, x2 = 0.81 | 24.15 J/K/mol and 24.13 J/K/mol
364.17 K, Crystal of intercomponent compound 2, Small sample (50 mg) DSC, x2 = 0.804 | 24.69 J/K/mol
364.36 K, Crystal of intercomponent compound 1, Small sample (50 mg) DSC, x2 = 0.81 | 24.02 J/K/mol
364.37 K, Crystal of intercomponent compound 1, Small sample (50 mg) DSC, x2 = 0.81 | 23.91 J/K/mol
374.07 K, Crystal of intercomponent compound 2, Small sample (50 mg) DSC, x2 = 0.804 | 24.83 J/K/mol and 24.87 J/K/mol and 24.94 J/K/mol
374.08 K, Crystal of intercomponent compound 1, Small sample (50 mg) DSC, x2 = 0.81 | 24.33 J/K/mol and 24.27 J/K/mol
374.28 K, Crystal of intercomponent compound 1, Small sample (50 mg) DSC, x2 = 0.81 | 24.24 J/K/mol and 24.13 J/K/mol
380 K, Crystal of intercomponent compound 1, relaxation calorimetry + DSC, x2 = 0.81 | 24.29 J/K/mol
380 K, Crystal of intercomponent compound 2, relaxation calorimetry + DSC, x2 = 0.804 | 24.51 J/K/mol
383.99 K, Crystal of intercomponent compound 2, Small sample (50 mg) DSC, x2 = 0.804 | 25.05 J/K/mol
384.19 K, Crystal of intercomponent compound 1, Small sample (50 mg) DSC, x2 = 0.81 | 24.35 J/K/mol
384.2 K, Crystal of intercomponent compound 1, Small sample (50 mg) DSC, x2 = 0.81 | 24.46 J/K/mol
393.9 K, Crystal of intercomponent compound 2, Small sample (50 mg) DSC, x2 = 0.804 | 25.16 J/K/mol and 25.27 J/K/mol
394.11 K, Crystal of intercomponent compound 1, Small sample (50 mg) DSC, x2 = 0.81 | 24.46 J/K/mol
394.12 K, Crystal of intercomponent compound 1, Small sample (50 mg) DSC, x2 = 0.81 | 24.68 J/K/mol
400 K, Crystal of intercomponent compound 1, relaxation calorimetry + DSC, x2 = 0.81 | 24.63 J/K/mol
400 K, Crystal of intercomponent compound 2, relaxation calorimetry + DSC, x2 = 0.804 | 24.94 J/K/mol
403.81 K, Crystal of intercomponent compound 2, Small sample (50 mg) DSC, x2 = 0.804 | 25.3 J/K/mol and 25.35 J/K/mol
404.02 K, Crystal of intercomponent compound 1, Small sample (50 mg) DSC, x2 = 0.81 | 24.57 J/K/mol
404.03 K, Crystal of intercomponent compound 1, Small sample (50 mg) DSC, x2 = 0.81 | 25.01 J/K/mol
413.73 K, Crystal of intercomponent compound 2, Small sample (50 mg) DSC, x2 = 0.804 | 25.46 J/K/mol and 25.49 J/K/mol
413.94 K, Crystal of intercomponent compound 1, Small sample (50 mg) DSC, x2 = 0.81 | 24.68 J/K/mol and 25.12 J/K/mol
420 K, Crystal of intercomponent compound 1, relaxation calorimetry + DSC, x2 = 0.81 | 24.96 J/K/mol
420 K, Crystal of intercomponent compound 2, relaxation calorimetry + DSC, x2 = 0.804 | 25.37 J/K/mol
423.64 K, Crystal of intercomponent compound 2, Small sample (50 mg) DSC, x2 = 0.804 | 25.57 J/K/mol and 25.65 J/K/mol
423.85 K, Crystal of intercomponent compound 1, Small sample (50 mg) DSC, x2 = 0.81 | 24.68 J/K/mol
423.86 K, Crystal of intercomponent compound 1, Small sample (50 mg) DSC, x2 = 0.81 | 25.12 J/K/mol
433.56 K, Crystal of intercomponent compound 2, Small sample (50 mg) DSC, x2 = 0.804 | 25.68 J/K/mol and 25.75 J/K/mol
433.76 K, Crystal of intercomponent compound 1, Small sample (50 mg) DSC, x2 = 0.81 | 25.01 J/K/mol
433.77 K, Crystal of intercomponent compound 1, Small sample (50 mg) DSC, x2 = 0.81 | 25.23 J/K/mol
440 K, Crystal of intercomponent compound 1, relaxation calorimetry + DSC, x2 = 0.81 | 25.28 J/K/mol
440 K, Crystal of intercomponent compound 2, relaxation calorimetry + DSC, x2 = 0.804 | 25.8 J/K/mol
443.48 K, Crystal of intercomponent compound 2, Small sample (50 mg) DSC, x2 = 0.804 | 25.83 J/K/mol and 25.95 J/K/mol
443.67 K, Crystal of intercomponent compound 1, Small sample (50 mg) DSC, x2 = 0.81 | 25.01 J/K/mol
443.69 K, Crystal of intercomponent compound 1, Small sample (50 mg) DSC, x2 = 0.81 | 25.56 J/K/mol
453.39 K, Crystal of intercomponent compound 2, Small sample (50 mg) DSC, x2 = 0.804 | 25.96 J/K/mol and 26.21 J/K/mol
453.59 K, Crystal of intercomponent compound 1, Small sample (50 mg) DSC, x2 = 0.81 | 25.01 J/K/mol
